From PMC8907207, “Multiplex quantification of C-terminal alpha-1-antitrypsin peptides provides a novel approach for characterizing systemic inflammation” (Scientific Reports, 2022)
Ends that are not written are not given here.

Assays:
[1] = Benchtop stability of QC samples at room temperature; type: in vitro ADME; conditions: QC in 70 g/L albumin in PBS, 60 min. at room temperature, LC-MS/MS
Experimental: (§1) Stability of analytes in processed samples was determined at six independent days for a time span of 20 h in the autosampler. Deviations of standing samples to freshly measured samples were below 19% at the LLOQ and below 9% for other QC levels for each analyte, respectively (Additional file 4). Stability of analytes in biological matrix was determined by consecutive cycles of freezing and thawing as well as extended intervals at room temperature from thawing to processing (approximately one hour).
(§2) Lyophilized authentic peptide standards were dissolved and diluted in a 70 g/L Albumin (from human serum, lyophilized, ≥ 99%, Sigma-Aldrich) in PBS (Sigma-Aldrich, St. Louis, MO, USA) solution. Internal standards C37^IS and C42^IS were dissolved in Milli-Q water (Millipore, Brussels, Belgium) containing 0.1% (v/v) formic acid (≥ 95%, Sigma-Aldrich) whereas C22^IS was only dissolved in ultrapure water. Mixtures of CAAPs used as calibration standards (calibrants) and quality control samples (QCs) were prepared as stock solution to a final concentration of 14 µM, respectively, (expect C40^SNP which was 5 µM) with subsequent serial dilutions. Calibrants and QCs were obtained from separate serial dilutions. Internal standard solution was prepared by adding equal volumes of each IS yielding a final concentration of 0.8 µM, respectively. All samples used for method development and validation were prepared and stored in 0.5 mL Protein LoBind Tubes (Eppendorf AG, Hamburg, Germany) in aliquots at − 80 °C until use.
(§3) Working range of calibrants was defined based on CAAPs detected in samples from healthy donors (set to approximate lower limit of quantification) and in samples from septic patients (set to middle to high calibration range) which were re-analyzed from a previously work[46]. Nine calibrants were used in total ranging from 0.01 µM to 1.5 µM thereby covering more than two orders of magnitude in concentration. Linearity was assessed determining mean linear regression coefficients of each calibration curve from 0.01 to 1.5 µM in eight independent analytical runs. However, respective LLOQs (lower limit of quantification) and ULOQs (upper limit of quantification) were defined individually based on natural occurrence (see above) and results from validation parameter directly affected individual working ranges (carry-over, specificity). Four QC samples were prepared and measured in total (QC1, QC2, QC3, and QC4) to cover the entire range of calibration. However, three QCs for each of the respective analytes were used for method validation. Carry-over was determined measuring pure albumin solutions prepared without internal standards (but equal amount and concentration of water/formic acid solution as regular internal standard solution, “blank albumin sample”) directly after the respective highest calibrants. Peak areas were compared to peak areas from respective LLOQ samples (prepared with regular internal standard solution). Specificity was assessed using single compounds at respective highest calibrant level which were prepared and calculated as described for carry-over. The specificity of analytes towards internal standards was determined using pure albumin solution with internal standard (“zero albumin sample”). Accuracy and precision was determined by back-calculated concentrations from repeated measurements of the same QC samples during one analytical run (within-run repeatability, n = 5) and from freshly prepared samples during five independent analytical runs (between-run, n = 5). Due to the unavailability of analyte-free biological matrix, selectivity of analytes were assessed in pure albumin solution containing internal standards. Matrix effects were determined calculating recovery rates and precision of each compound in human blood samples. Direct comparison between different anticoagulants (EDTA, lithium-heparin) and serum was performed using whole blood from the same human donor. […]

[2] = Freeze/thaw stability of QC samples; type: in vitro ADME; conditions: QC in 70 g/L albumin in PBS, two cycles of freezing and thawing, LC-MS/MS
Experimental: as §1, §2, §3

[3] = QC2 (0.025 µM; C40^SNP see Table 1)
[4] = QC3 (0.3 µM; C40^SNP 0.1073 µM)

benchtop stability, accuracy (mean of n=3) [1, 3] [%]	benchtop stability, deviation from freshly processed QCs (mean of n=3) [1, 3] [%]	benchtop stability, accuracy (mean of n=3) [1, 4] [%]	benchtop stability, deviation from freshly processed QCs (mean of n=3) [1, 4] [%]	freeze/ thaw stability, accuracy (mean of n=3) [2, 3] [%]	freeze/ thaw stability, deviation from freshly processed QCs (mean of n=3) [2, 3] [%]	freeze/ thaw stability, accuracy (mean of n=3) [2, 4] [%]	freeze/ thaw stability, deviation from freshly processed QCs (mean of n=3) [2, 4] [%]	Sequence
101	-1	98	-2	104	2	99	-2	SIPPEVKFNKPFVFLMIDQNTKSPLFMGKVVNPTQK [C36^SNP]
106	4	98	-1	106	4	98	-1	SIPPEVKFNKPFVFLMIEQNTKSPLFMGKVVNPTQK [C36^WT]
